Patent publication US20050197338A1, “Substituted pyrazole urea compounds for the treatment of inflammation” (priority 2003, published 2005)

What follows are molecules tested against T1, human IKK-2 (rhIKK-2 homodimer) (Homo sapiens, UniProt O14920) (assay: IKK-2 Resin Enzyme Assay (Human IKK-2 Enzyme Assay)). Details: human IKK-2, resin enzyme assay; read-out: IC50 (μM) hIKK-2.
T1 construct: FLAG (DYKDDDDKD) (C); made in house; host or cells: insect cells (baculovirus, pFastBac)
T1 sequence (O14920 1-756): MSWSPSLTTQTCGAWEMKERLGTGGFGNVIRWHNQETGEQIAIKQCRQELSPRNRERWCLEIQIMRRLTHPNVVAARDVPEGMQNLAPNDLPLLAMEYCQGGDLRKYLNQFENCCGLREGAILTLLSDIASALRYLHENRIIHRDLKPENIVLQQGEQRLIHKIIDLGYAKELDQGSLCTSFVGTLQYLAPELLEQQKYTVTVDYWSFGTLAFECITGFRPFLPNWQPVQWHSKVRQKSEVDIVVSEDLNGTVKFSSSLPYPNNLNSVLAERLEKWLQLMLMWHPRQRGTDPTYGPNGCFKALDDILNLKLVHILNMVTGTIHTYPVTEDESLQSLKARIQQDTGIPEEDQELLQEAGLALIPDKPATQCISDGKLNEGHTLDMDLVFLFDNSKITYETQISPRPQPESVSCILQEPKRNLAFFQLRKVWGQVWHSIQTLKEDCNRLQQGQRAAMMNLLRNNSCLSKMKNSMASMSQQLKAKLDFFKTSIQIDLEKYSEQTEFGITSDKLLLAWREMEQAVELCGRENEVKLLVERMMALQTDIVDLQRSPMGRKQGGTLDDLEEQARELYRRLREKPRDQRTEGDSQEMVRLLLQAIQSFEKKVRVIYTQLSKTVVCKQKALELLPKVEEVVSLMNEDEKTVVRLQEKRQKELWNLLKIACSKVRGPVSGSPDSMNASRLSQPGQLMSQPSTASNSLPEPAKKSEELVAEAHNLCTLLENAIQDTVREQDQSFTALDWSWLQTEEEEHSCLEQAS
Format: biochemical
Outline: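 C-terminally FLAG-tagged human IKK-2 homodimer, baculovirus-expressed in insect cells and anti-FLAG purified. Reaction mix: 5 μM biotinylated IκBα peptide (Ser32/Ser36 region), 1 μM ATP with [γ-33P]ATP, 2 mM MgCl2, 2 mM MnCl2, 10 mM NaF, 1 mM DTT, 25 mM HEPES pH 7.6. Incubated 30 min at 25 °C; IC50 derived.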

Row | SMILES | IC50
1 | NC(=O)Nc1cn(-c2ccc(I)c(Cl)c2)nc1C(N)=O [Example 6, 4-[(aminocarbonyl)amino]-1-(3-chloro-4-iodophenyl)-1H-pyrazole-3-carboxamide] | 0.546 µM
2 | NC(=O)Nc1cn(-c2cccc(-c3cccc(-c4ccccc4)c3)c2)nc1C(N)=O [Example 372] | > 20 µM
3 | CC(C)c1ccc(-c2cccc(-n3cc(NC(N)=O)c(C(N)=O)n3)c2)cc1 [Example 353, 4-[(aminocarbonyl)amino]-1-(4′-isopropyl-1,1′-biphenyl-3-yl)-1H-pyrazole-3-carboxamide] | > 20 µM
4 | N#CCOc1ccccc1-c1cccc(-n2cc(NC(N)=O)c(C(N)=O)n2)c1 [Example 176, 4-[(aminocarbonyl)amino]-1-[2′-(cyanomethoxy)-1,1′-biphenyl-3-yl]-1H-pyrazole-3-carboxamide] | 0.18 µM
5 | COc1ccc(-c2cccc(-n3cc(NC(N)=O)c(C(N)=O)n3)c2)cc1 [Example 344, 4-[(aminocarbonyl)amino]-1-(4′-methoxy-1,1′-biphenyl-3-yl)-1H-pyrazole-3-carboxamide] | > 20 µM
6 | NC(=O)Nc1cn(-c2ccc(-c3cccc(OCc4ccccn4)c3)cc2)nc1C(N)=O [Example 168, 4-[(aminocarbonyl)amino]-1-[3′-(pyridin-2-ylmethoxy)-1,1′-biphenyl-4-yl]-1H-pyrazole-3-carboxamide] | 1.99 µM
7 | Cc1cnccc1-c1cccc(-n2cc(NC(N)=O)c(C(N)=O)n2)c1 [Example 69, 4-[(aminocarbonyl)amino]-1-[3-(3-methylpyridin-4-yl)phenyl]-1H-pyrazole-3-carboxamide] | 0.65 µM
8 | NC(=O)Nc1nn(-c2ccc(-c3cc(Cl)ccc3Cl)cc2)cc1C(N)=O [Example 135] | 1.66 µM
9 | NC(=O)Nc1cn(-c2ccc(-c3ccc(C(=O)NCc4ccccc4)c(F)c3)cc2)nc1C(N)=O [Example 151, 4-[(aminocarbonyl)amino]-1-{4′-[(benzylamino)carbonyl]-3′-fluoro-1,1′-biphenyl-4-yl}-1H-pyrazole-3-carboxamide] | 0.31 µM
10 | NC(=O)Nc1cn(-c2cccc(-c3ccsc3)c2)nc1C(N)=O [Example 43, 4-[(aminocarbonyl)amino]-1-(3-thien-3-ylphenyl)-1H-pyrazole-3-carboxamide] | 8.54 µM
11 | COc1cccc(-c2ccc(-n3cc(NC(N)=O)c(C(N)=O)n3)cc2)c1F [Example 120, 4-[(aminooarbonyl)amino]-1-(2′-fluoro-3′-methoxy-1,1′-biphenyl-4-yl)-1H-pyrazole-3-carboxamide] | 0.972 µM
12 | NC(=O)Nc1cn(-c2ccc(Sc3ccccc3F)cc2)nc1C(N)=O [Example 190, 1-(1-(4-(2-fluorophenylthio)phenyl)-3-carbamoyl-1H-pyrazol-4-yl)urea] | 0.831 µM
13 | Cc1cc(-n2cc(NC(N)=O)c(C(N)=O)n2)ccc1Sc1ccc(F)cc1 [Example 297, 1-[4-(4-fluoro-phenylsulfanyl)-3-methyl-phenyl]-4-ureido-1H-pyrazole-3-carboxylic acid amide] | 1.94 µM
14 | CNC(=O)Nc1cn(-c2ccc(I)c(C)c2)nc1C(N)=O [Example 245, 1-(4-Iodo-3-methyl-phenyl)-4-(3-methyl-ureido)-1H-pyrazole-3-carboxylic acid amide] | 5.51 µM
15 | NC(=O)Nc1cn(-c2ccc(-c3cccc(OCc4cccnc4)c3)cc2)nc1C(N)=O [Example 170, 4-[(aminocarbonyl)amino]-1-[3′-(pyridin-3-ylmethoxy)-1,1′-biphenyl-4-yl]-1H-pyrazole-3-carboxamide] | 1.58 µM
16 | CNC(=O)CCc1cccc(-c2ccc(-n3cc(NC(N)=O)c(C(N)=O)n3)cc2)c1 [Example 381, 4-[(aminocarbonyl)amino]-1-{3′-[3-(methylamino)-3-oxopropyl]-1,1′-biphenyl-4-yl}-1H-pyrazole-3-carboxamide] | 0.42 µM
17 | NC(=O)Nc1cn(-c2cccc(-c3cccc(CO)c3)c2)nc1C(N)=O [Example 49, 4-[(aminocarbonyl)amino]-1-[3′-(hydroxymethyl)-1,1′-biphenyl-3-yl]-1H-pyrazole-3-carboxamide] | 2.48 µM

Other lines, results leading:

Row | IC50 | SMILES
18 | 0.61 µM | NC(=O)Nc1cn(-c2ccc(-c3ccc(C(=O)NCc4cccc(F)c4)c(F)c3)cc2)nc1C(N)=O [Example 156, 4-[(aminocarbonyl)amino]-1-(3′-fluoro-4′-{[(3-fluorobenzyl)amino]carbonyl}-1,1′-biphenyl-4-yl)-1H-pyrazole-3-carboxamide]
19 | 16.7 µM | NC(=O)Nc1cn(-c2cccc(-c3ccc(Cl)cc3Cl)c2)nc1C(N)=O [Example 369, 4-[(aminocarbonyl)amino]-1-(2′,4′-dichloro-1,1′-biphenyl-3-yl)-1H-pyrazole-3-carboxamide]
20 | 3.05 µM | CCOc1cc(-n2cc(NC(N)=O)c(C(N)=O)n2)ccc1-c1ccccc1OCC#N [Example 236, 4-[(aminocarbonyl)amino]-1-[2′-(cyanomethoxy)-2-ethoxy-1,1′-biphenyl-4-yl]-1H-pyrazole-3-carboxamide]
21 | 4.79 µM | CC(C)(C)NC(=O)c1cccc(-c2ccc(-n3cc(NC(N)=O)c(C(N)=O)n3)cc2)c1 [Example 31, 4-[(aminocarbonyl)amino]-1-{3′-[(tert-butylamino)carbonyl]-1,1′-biphenyl-4-yl}-1H-pyrazole-3-carboxamide]
22 | 0.66 µM | NC(=O)Nc1cn(-c2cccc(-c3ccc(O)cc3)c2)nc1C(N)=O [Example 47, 4-[(aminocarbonyl)amino]-1-(4′-hydroxy-1,1 ′-biphenyl-3-yl)-1H-pyrazole-3-carboxamide]
23 | 2.19 µM | Cc1cc(S(=O)(=O)c2ccc(F)cc2)ccc1-n1cc(NC(N)=O)c(C(N)=O)n1 [Example 229, 4-[(aminocarbonyl)amino]-1-{4-[(4-fluorophenyl)sulfonyl]-2-methylphenyl}-1H-pyrazole-3-carboxamide]
24 | > 20 µM | CSc1cccc(-c2cccc(-n3cc(NC(N)=O)c(C(N)=O)n3)c2)c1 [Example 357, 4-[(aminocarbonyl)amino]-1-[3′-(methylthio)-1,1′-biphenyl-3-yl]-1H-pyrazole-3-carboxamide]
25 | 8.03 µM | NC(=O)Nc1cn(-c2cccc(-c3cccc(C(=O)O)c3)c2)nc1C(N)=O [Example 73, 3′-{3-(aminocarbonyl)-4-[(aminocarbonyl)amino]-1H-pyrazol-1-yl}-1,1′-biphenyl-3-carboxylic acid]
26 | 1.18 µM | COc1ccc(-c2cccc(-n3cc(NC(N)=O)c(C(N)=O)n3)c2)cc1F [Example 359, 4-[(aminocarbonyl)amino]-1-(3′-fluoro-4′-methoxy-1,1′-biphenyl-3-yl)-1H-pyrazole-3-carboxamide]
27 | 0.0514 µM | NC(=O)Nc1cn(-c2ccc(Sc3ccncc3)cc2)nc1C(N)=O [Example 206, 1-(3-carbamoyl-1-(4-(pyridin-4-ylthio)phenyl)-1H-pyrazol-4-yl)urea]
28 | 10.5 µM | NC(=O)Nc1cn(-c2ccc(Sc3ccccc3F)cc2F)nc1C(N)=O [Example 211, 1-(1-(4-(2-fluorophenylthio)-2-fluorophenyl)-3-carbamoyl-1H-pyrazol-4-yl)urea]
29 | 1.34 µM | NC(=O)Nc1cn(-c2ccc(-c3cccc(CO)c3)cc2)nc1C(N)=O [Example 39, 4-[(aminocarbonyl)amino]-1-[3′-(hydroxymethyl)-1,1′-biphenyl-4-yl]-1H-pyrazole-3-carboxamide]
30 | 0.578 µM | NC(=O)Nc1cn(-c2ccc([S+]([O-])c3ccccc3O)cc2)nc1C(N)=O (centres unmarked) [Example 285, 1-(1-(4-(2-hydroxyphenylsulfinyl)phenyl)-3-carbamoyl-1H-pyrazol-4-yl)urea]
31 | 0.24 µM | CNC(=O)c1ccc(-c2ccc(-n3cc(NC(N)=O)c(C(N)=O)n3)cc2)cc1 [Example 145, 4-[(aminocarbonyl)amino]-1-{4′-[(methylamino)carbonyl]-1,1′-biphenyl-4-yl}-1H-pyrazole-3-carboxamide]
32 | 1.04 µM | NC(=O)Nc1cn(-c2cccc(-c3ccc(CO)cc3)c2)nc1C(N)=O [Example 48, 4-[(aminocarbonyl)amino]-1-[4′-(hydroxymethyl)-1,1′-biphenyl-3-yl]-1H-pyrazole-3-carboxamide]
